Source: patent publication US20260138992A1, “LUR[…] FORM AND METHOD FOR PREPARING SAME” (priority 2022, published 2026)
Like-named read-outs stand apart in the source and are kept apart here.

How the values were obtained:
[1] = during its manipulation; cited from earlier work
[2] = Applicant's experimental study of the stability of crystal Form A of CN114940682A; format: physicochemical
[3] = format: physicochemical; conditions: for chemical stability (assessment in words) / physical stability (assessment in words): 10 days under long-term and accelerated conditions; for product purity: after 10 days at 25° C./60% RH and 40° C./75% RH; for purity: sealed and stored at −20° C. for 120 days
[4] = Observation of electrostatic properties of the crystal forms (glass bottle storage, weighing); format: physicochemical; conditions: for electrostatic effect (sticking to scoop and weighing paper): during the weighing; for wall-hanging phenomenon: stored in a glass bottle
[5] = Stability test of crystal form I of lurbinectedin (XRPD and HPLC purity after storage); format: physicochemical
[6] = 10 days under long-term (25° C./60% RH) and accelerated (40° C./75% RH) conditions
[7] = Group 6, sealed and stored at −20° C. for 120 days
[8] = Group 2, kept in dark, sealed, 2-8° C. for 12 months
[9] = Group 3, kept in dark, sealed, −20° C. for 20 months
[10] = stored at −20° C. in the dark and sealed, and at 2-8° C. in the dark and sealed

Row | SMILES | XRPD crystal form [3, 6] | chemical stability (assessment in words) [3] | physical stability (assessment in words) [3] | HPLC purity ([3]; Group 1, 0 day) | HPLC purity ([3]; Group 2, 25° C./60% RH-5 days) | HPLC purity ([3]; Group 3, 25° C./60% RH-10 days) | HPLC purity ([3]; Group 4, 40° C./75% RH-5 days) | HPLC purity ([3]; Group 5, 40° C./75% RH-10 days) | HPLC purity [3, 7] | product purity [3] | purity [3] | XRPD crystal form ([3]; sealed, −20° C. for 120 days) | electrostatic effect (sticking to scoop and weighing paper) [4] | wall-hanging phenomenon [4] | further results
1 | COc1ccc2[nH]c3c(c2c1)CCN[C@]31CS[C@@H]2c3c(OC(C)=O)c(C)c4c(c3[C@H](COC1=O)N1[C@@H]2[C@H]2c3c(cc(C)c(OC)c3O)C[C@@H]([C@@H]1O)N2C)OCO4 [Form A, lurbinectedin] |  |  |  |  |  |  |  |  |  |  |  |  |  |  | static electricity [1]: has static electricity
2 | COc1ccc2[nH]c3c(c2c1)CCN[C@]31CS[C@@H]2c3c(OC(C)=O)c(C)c4c(c3[C@H](COC1=O)N1[C@@H]2[C@H]2c3c(cc(C)c(OC)c3O)C[C@@H]([C@@H]1O)N2C)OCO4 [crystal Form A, lurbinectedin] |  |  |  |  |  |  |  |  |  |  |  |  |  |  | stability of the crystal form ([2]; at room temperature, converts into other crystal forms readily): highly unstable; stability of the crystal form ([2]; at −20° C.): stable
3 | COc1ccc2[nH]c3c(c2c1)CCN[C@]31CS[C@@H]2c3c(OC(C)=O)c(C)c4c(c3[C@H](COC1=O)N1[C@@H]2[C@H]2c3c(cc(C)c(OC)c3O)C[C@@H]([C@@H]1O)N2C)OCO4 [crystal form B, lurbinectedin, reference compound] | remained unchanged | relatively poor | excellent | 99.62% | 99.44% | 99.05% | 99.13% | 99.24% | 99.60% | decreased | above 99% | remained unchanged | obvious electrostatic effect | exhibits wall-hanging phenomenon | XRPD crystal form ([3]; 10 days under long-term (25° C./60% RH) and accelerated (40° C./75% RH) conditions, listed as Crystal form B): unchanged for 10; XRPD crystal form ([3]; sealed, −20° C. for 120 days, listed as Crystal form B): unchanged
4 | COc1ccc2[nH]c3c(c2c1)CCN[C@]31CS[C@@H]2c3c(OC(C)=O)c(C)c4c(c3[C@H](COC1=O)N1[C@@H]2[C@H]2c3c(cc(C)c(OC)c3O)C[C@@H]([C@@H]1O)N2C)OCO4 [crystal form I, lurbinectedin] |  |  |  |  |  |  |  |  |  |  |  |  | do not show electrostatic effect or the effect is not obvious | no wall-hanging phenomenon or the phenomenon is not obvious | Crystal form of lurbinectedin (XRPD) ([5]; Group 1, initial moment): crystal form I; HPLC purity ([5]; Group 1, initial moment): 99.91%; Crystal form of lurbinectedin (XRPD) [5, 8]: crystal form I; HPLC purity [5, 8]: 99.68%; Crystal form of lurbinectedin (XRPD) [5, 9]: crystal form I; HPLC purity [5, 9]: 99.65%; time the crystal form remains stable ([5]; stored at 2-8° C. or −20° C.): at least 12 months; crystal form [5, 10]: remained unchanged; product purity [5, 10]: above 99%
5 | COc1ccc2[nH]c3c(c2c1)CCN[C@]31CS[C@@H]2c3c(OC(C)=O)c(C)c4c(c3[C@H](COC1=O)N1[C@@H]2[C@H]2c3c(cc(C)c(OC)c3O)C[C@@H]([C@@H]1O)N2C)OCO4 [crystal form II, lurbinectedin] | remained unchanged | excellent | excellent | 99.59% | 99.40% | 99.41% | 99.41% | 99.41% | 99.58% | above 99% | above 99% | remained unchanged | do not show electrostatic effect or the effect is not obvious | no wall-hanging phenomenon or the phenomenon is not obvious | XRPD crystal form ([3]; sealed, −20° C. for 120 days, listed as Crystal form II): unchanged
6 | COc1ccc2[nH]c3c(c2c1)CCN[C@]31CS[C@@H]2c3c(OC(C)=O)c(C)c4c(c3[C@H](COC1=O)N1[C@@H]2[C@H]2c3c(cc(C)c(OC)c3O)C[C@@H]([C@@H]1O)N2C)OCO4 [crystal form III, lurbinectedin] | remained unchanged | excellent | excellent | 99.61% | 99.48% | 99.42% | 99.48% | 99.37% | 99.60% | above 99% | above 99% | remained unchanged | do not show electrostatic effect or the effect is not obvious | no wall-hanging phenomenon or the phenomenon is not obvious | XRPD crystal form ([3]; sealed, −20° C. for 120 days, listed as Crystal form III): unchanged
7 | COc1ccc2[nH]c3c(c2c1)CCN[C@]31CS[C@@H]2c3c(OC(C)=O)c(C)c4c(c3[C@H](COC1=O)N1[C@@H]2[C@H]2c3c(cc(C)c(OC)c3O)C[C@@H]([C@@H]1O)N2C)OCO4 [crystal form IV, lurbinectedin] | remained unchanged | excellent | excellent | 99.90% | 99.86% | 99.74% | 99.79% | 99.78% | 99.91% | above 99% | above 99% | remained unchanged | do not show electrostatic effect or the effect is not obvious | no wall-hanging phenomenon or the phenomenon is not obvious | XRPD crystal form ([3]; sealed, −20° C. for 120 days, listed as Crystal form IV): unchanged
8 | COc1ccc2[nH]c3c(c2c1)CCN[C@]31CS[C@@H]2c3c(OC(C)=O)c(C)c4c(c3[C@H](COC1=O)N1[C@@H]2[C@H]2c3c(cc(C)c(OC)c3O)C[C@@H]([C@@H]1O)N2C)OCO4 [crystal form V, lurbinectedin] |  |  |  |  |  |  |  |  |  |  |  |  | do not show electrostatic effect or the effect is not obvious | no wall-hanging phenomenon or the phenomenon is not obvious | 
